For one data set, the system named is HIV-2. The data set is described as follows: HIV-2 induced cytopathicity in MT-4 cells. In kind it is cell-based, human immunodeficiency virus type 2. Particulars: MT-4 cells. As for the experimental part: (§1) The activity of the compounds against HIV-1 and HIV-2 induced cytopathicity was examined in human lymphocyte MT-4 cells. […] The infected cell cultures were then incubated at 37° C. for 5 days in a humidified CO2-controlled incubator. Then, the cytopathicity of the virus was examined by determination of MT-4 cell viability by trypan blue dye staining.
(Cytopathic effects are the visible damage that an infection or toxin causes in cultured cells.)

For data set [1], the system named is Moloney murine sarcoma virus (MSV). The data set is described as follows: MSV-induced tumor formation in NMRI mice, oral administration. In kind it is in vivo. As for the experimental part: Three-week-old NMRI mice (about 10 grams body weight) were injected intramuscularly in the left hind leg with 50 μl of 20-fold diluted stock preparation of Moloney murine sarcoma virus. Starting 2-4 hours before virus infection, six animals received an orally administered test compound twice a day at 100 mg/kg(total dose) daily for five subsequent days. The control (placebo) group consisted of 14 animals. The experiment was evaluated as described in Example 35.

A further data set deals with C3H/3T3 cells. The data set is described as follows: Microscopic alteration of C3H/3T3 cell culture morphology. In kind it is cell-based, murine. Particulars: concentration that results in a microscopic alteration of the C3H/3T3 cell culture morphology.
For another data set, the system named is MT-4 cells. Put plainly: MT-4 cell viability (trypan blue). The data set is classed as cell-based, human. As for the experimental part:
The activity of the compounds against HIV-1 and HIV-2 induced cytopathicity was examined in human lymphocyte MT-4 cells. […]. The infected cell cultures were then incubated at 37° C. for 5 days in a humidified CO2-controlled incubator. Then, the cytopathicity of the virus was examined by determination of MT-4 cell viability by trypan blue dye staining. The results are summarized in Table 1 in comparison with the data on the prototype compounds.

Another data set deals with HIV-1. The data set is described as follows: HIV-1 induced cytopathicity in MT-4 cells. The data set is classed as cell-based, human immunodeficiency virus type 1. Particulars: MT-4 cells. As for the experimental part: as §1
Data set [2] deals with Moloney murine sarcoma virus (MSV). The data set is described as follows: MSV-induced tumor formation and death in newborn NMRI mice, intraperitoneal administration. The data set is classed as in vivo. The following applies: for Mean day of animal death: observed 20 days. As for the experimental part: Two gram newborn NMRI mice were injected intramuscularly in the left hind leg with 50 μl of 250-fold diluted stock preparation of Moloney murine sarcoma virus. […] Another group of mice (20 animals) was administered RPMI-1640 medium as placebo. All compounds were solubilized in RPMI-1640 medium. The mice were observed daily for 20 days and the day of tumor initiation and the day of animal death was recorded for each animal. Statistical analyses were performed by calculating the standard deviation.

In a further data set the test system is retrovirus. Put plainly: Anti-retrovirus activity in vitro, conclusions on Table 1 (HIV-1, HIV-2, MSV). The data set is classed as cell-based. Particulars: in vitro, summary of Table 1.
The subject of another data set is herpes viruses. The following applies: racemic mixtures, prior art; cited from earlier work.
Setting [3] is: twice a day, 100 mg/kg total daily dose for five days.

Like-named read-outs stand apart in the source and are kept apart here. Marks after values point to notes of the source that are not given here.

Experimental for retrovirus: The cells were seeded in 1-ml-wells of a 48-well microtiter plate and exposed to 80 PFU (plaque forming units) for 60-90 minutes. Then, the virus was removed and culture medium containing appropriate concentrations of the test compounds were added (1 ml per well). At day 6 post infection, MSV-induced transformation of the cell culture was examined microscopically.

In the case of `C[C@H](Cn1cnc2c(N)nc(N)nc21)OCP(=O)(O)O` [(R)-PMPDAP, 9-(R)-(2-Phosphonomethoxypropyl)-2,6-diaminopurine], the “selectivity index (ratio cytotoxic dose/antivirally active dose) for HIV-2” value in the data set on HIV-2 was > 2 000. For the same compound, the “increase of the mean day of tumor initiation” value in data set [1] (100 mg/kg/day) worked out at 50%. In data set [1] (setting [3]), the “Mean day of tumor initiation” value is 7.5 ± 1.0*^) day and the “Number of mice developing tumor (%)” value is given as 67%. In the data set on C3H/3T3 cells, this compound came in with an MIC above 100 mg/L. The “toxicity to the cells” value in the data set on MT-4 cells (at 100 μg/ml) was “non-toxic”. Further, the “selectivity index (ratio cytotoxic dose/antivirally active dose) for HIV-1” value with HIV-1 was > 2 000. Also, in data set [2] (i.p.), the “in vivo anti-MSV activity relative to (R)-PMPA” value was “five-fold superior over (R)-PMPA”; the “inhibiting tumor initiation and prolonging the life-span of MSV-infected mice (in words)” value is listed as “highly effective”. In data set [2] (single i.p. dose 2 mg/kg), the “percentage of MSV-infected mice still alive at day 20 post infection” value is 70%, the “percentage of MSV-infected mice without tumor at day 20 post infection” value worked out at 36% and the “Mean day of animal death” value was 15 days. Also, in data set [2] (single i.p. dose 5 mg/kg), the “percentage of MSV-infected mice still alive at day 20 post infection” value is 90% and the “Mean day of animal death” value came out at 16.5 days. In data set [2] (single i.p. dose 10 mg/kg), the “percentage of MSV-infected mice still alive at day 20 post infection” value was determined as 90% and the “Mean day of animal death” value turned out to be 18.5 days. Further, in data set [2] (single i.p. dose 20 mg/kg), the “percentage of MSV-infected mice still alive at day 20 post infection” value came to 95% and the “Mean day of animal death” value was 18 days. Besides, the “protection of the animals against MSV-induced tumor development” value in data set [2] (single i.p. dose of 10-20 mg/kg) is recorded as 90-95%.

On to `C[C@H](Cn1cnc2c(N)ncnc21)OCP(=O)(O)O` [(R)-PMPA, 9-(R)-(2-Phosphonomethoxypropyl)adenine], for which, in the data set on C3H/3T3 cells, the MIC is above 100 mg/L. Besides, the “concentration markedly inhibitory to retrovirus replication” value with retrovirus lay in the range of 1 to 2 µg/mL. In addition, the “toxicity to the cells” value in the data set with MT-4 cells is listed as “non-toxic”. In data set [2] (i.p.), the “inhibiting tumor initiation and prolonging the life-span of MSV-infected mice (in words)” value was “highly effective”. Moreover, the “Mean day of animal death” value was 12.6 ± 1.26 days in data set [2] (single i.p. dose 2 mg/kg); 14.4 ± 0.47 days in data set [2] (single i.p. dose 5 mg/kg); 18.3 ± 1.10 days in data set [2] (single i.p. dose 10 mg/kg); above 20 days in data set [2] (single i.p. dose 20 mg/kg); above 20 days in data set [2] (single i.p. dose 50 mg/kg). In addition, the “percentage of MSV-infected mice still alive at day 20 post infection” value in data set [2] (single i.p. dose 20 mg/kg) and in data set [2] (single i.p. dose 50 mg/kg) was 100% throughout. Further, in data set [2] (single i.p. dose of 50 mg/kg), the “protection against MSV-induced tumor development (in words)” value is given as “full protection”. Further, in data set [2] (single i.p. dose of 10-50 mg/kg), the “increasing the mean day of tumor initiation and animal death (in words)” value was “markedly effective”.

Regarding `CC(Cn1cnc2c(=O)[nH]c(N)nc21)OCP(=O)(O)O` (stereo not drawn) [PMPG], in the data set on herpes viruses, the “antiherpetic effect (in words)” value is recorded as “due to its substantial cytotoxicity”.

The values are drawn from US6653296B1, “Antiretroviral enantiomeric nucleotide analogs” (Institute of Organic Chemistry and Biochemistry of the …, priority 1992, dated 2003).
